Where two headings read alike, the source gives them in different places.
Columns and labels:
[1] = type: in vitro ADME, Cyprinus carpio; settings: S9 of smaller (likely younger, juvenile) carp population; mean ± SD, N = 3
[2] = type: in vitro ADME, Mus musculus
[3] = type: in vitro ADME, Chelydra serpentina serpentina; settings: snapping turtle S9; 120 min; 1 mg protein
[4] = test system: purified porcine esterases; settings: ref Roberts et al., 2011a, b; cited from earlier work
[5] = type: in vitro ADME, Pimephales promelas; settings: all three fathead minnow subcellular fractions; significant = three times the background

| SMILES | metabolic rate of TBB [1] | difference in TBB metabolism between age classes ([2]; S9, 4-month-old vs 2-month-old male mice) | metabolism of TBB (loss of parent vs heat-inactivated control) [3] | metabolism by esterases [4] | TBMB metabolite peaks in chromatograms of incubations [5] | TBMB metabolite peaks in chromatograms of incubations ([2]; mouse incubations, significant = three times the background) |
| --- | --- | --- | --- | --- | --- | --- |
| CCCCC(CC)COC(=O)c1cc(Br)c(Br)c(Br)c1Br (stereo not drawn) [TBB, 2-ethylhexyl 2,3,4,5-tetrabromobenzoate] | 1.30 ± 0.62 pmoles TBB mg^−1 min^−1 | No difference | not metabolized | rapidly metabolize | – | – |
| COC(=O)c1cc(Br)c(Br)c(Br)c1Br [TBMB, 2,3,4,5-tetrabromomethylbenzoate] | – | – | – | – | Significant peaks | not significant |

Reference: article PMC3835519 (Aquatic toxicology (Amsterdam, Netherlands), 2012)
